Results on 1 molecule are retold here after US10716783B2, “Prolylhydroxylase/ATF4 inhibitors and methods of use for treating neural cell injury or death and conditions resulting therefrom” (CORNELL UNIVERSITY, priority 2013, dated 2020).

Assay [1] deals with ATF4. The experiment in a line: ATF4 hydroxylation (ATF4 immunoprecipitation, hydroxyproline immunoblot). It is filed as cell-based.
Assay [2] deals with primary neurons. Description: Death induced by forced ATF4 expression in primary neurons (MTT, LIVE/DEAD). Type of assay: cell-based. As to conditions: concentrations protective in the oxidative stress model. The text has this:
FIGS. 6A-6I. […] Expression of ATF4 was forced into primary neurons, which induces death of these neurons by MTT assay (FIG. 6D) or LIVE/DEAD staining, Green is live, Red is dead (FIG. 6E).

Assay [3] deals with HIF-1 protein. Description: HIF-1 protein stabilisation in primary neurons (Western blot). Type of assay: cell-based. To be noted: FIG. 6H, 6I. The text has this:
FIGS. 1A-1L: Structurally diverse HIF PHD inhibitors stabilize HIF-1 and abrogate toxicity induced by hemin, a byproduct of blood breakdown, in cortical neurons hippocampal neuroblasts and striatal neuroblasts (not shown). […] FIGS. 6A-6I. […] Expression of ATF4 was forced into primary neurons, which induces death of these neurons by MTT assay (FIG. 6D) or LIVE/DEAD staining, Green is live, Red is dead (FIG. 6E).

Assay [4] has as its system HIF PHDs. The experiment in a line: ODD-luciferase reporter mice, in vivo bioluminescence imaging and tissue lysates. To be noted: for ODD-luciferase activity in brain: in vivo bioluminescence imaging, intraperitoneal; for ODD-luciferase activity in lysates from different brain regions: normalized to total protein, luminometer. From the text: (§1) FIGS. 3A-3G. Validation of adaptoquin as a novel HIF PHD inhibitor. […] Under steady state conditions, activity of HIF PHD2 with its co-substrate 2-oxoglutarate involves two peaks that represent non-hydroxylated and hydroxylated peptide. The hydroxylated peptide disappears in the presence of HIF PHD2 inhibition by adaptoquin. […] The reporter contains the ODD domain of HIF-1 which confers HIF PHD regulated stability on it. It is expressed in all cells of the body, but is destabilized in the absence of HIF PHD inhibition and stabilized in its presence. Quantitative measurements confirm stability of the ODD-luc in brain, kidney and liver (FIGS. 3D and 3E.).
To identify HIF PHD inhibitors suitable for testing in ICH, the experiment first sought to identify which of the known HIF PHD inhibitors could penetrate the blood brain barrier to inhibit HIF PHD activity in the CNS. To monitor HIF PHD activity dynamically, the experiment utilized mice that had previously been engineered to ubiquitously express the oxygen degradation domain (ODD) of HIF-1α fused to firefly luciferase. The ODD domain contains proline 402 and 564, which are hydroxylated by the HIF PHDs to degrade HIF-1 or the ODD-luciferase. Accordingly, these mice have been used previously to track HIF PHD activity in diverse organs in vivo using in vivo bioluminescence imaging.
(§2) To verify that the changes in light in the brain reflect parenchymal changes in ODD-luciferase levels rather than increases in changes in skin or dural ODD-luciferase, ODD-luciferase activity was measured normalized to total protein in lysates from distinct brain regions using a luminometer.

The test system of assay [5] is intracerebral hemorrhage (collagenase into the striatum). Description: Collagenase-induced ICH in mice. Type of assay: in vivo. To be noted: for Corner task (spatial neglect): 30 mg/kg i.p. 2 h post collagenase then daily for seven days; for Tape removal task (sensory neglect): 1 and 3 days post ICH; for Neuronal degeneration (Fluoro-jade staining), striatum hematoma and perihematomal area: day 7. The method, then:
FIGS. 4A-4N. Adaptoquin delivered post-injury reduces cell death and enhances functional recovery post injury in mice and rats. Adaptoquin's effects in mice are not associated with global shifts of iron out of the brain. FIG. 4A: Experimental design for schedule of delivery of adaptaquin post-ICH. 30 mg/kg was delivered post-injury and then daily for seven days during which behavioral analysis was done. Mice were sacrificed at day 7 for qPCR and Fluoro-jade staining. […] FIG. 4J: Protocol for adaptoquin treatment of rats with ICH. ICH is modeled by autologous blood infusion and not collagenase in these studies. Behavior is tracked by a single pellet reaching task out to 28 days, but the schedule of infusion is similar to what is used in mice-2 hrs post blood infusion and then daily out to seven days. Behavior is monitored before, from 9-11 days and from 25-28 days. […] FIG. 4L: Protocol for evaluating the total concentrations of iron and zinc in brain following ICH in vehicle and adaptoquin treated mice. FIGS. 4M, 4N: Pseudocolored sections of collagenase induced ICH in mice after 7 days. […] These studies are consistent with the notion that adaptoquin works by inhibiting a specific metalloenzyme rather than global movement of metal ions. To determine whether HIF PHD inhibition after ICH can improve behavioral outcomes, 30 mg/kg of adaptoquin was delivered to the peritoneum of mice two hours following the injection of collagenase into the striatum. An identical dose of adaptoquin (30 mg/kg) was given daily for seven days. […] These molecular deletion and pharmacological inhibition studies supported HIF PHDs as targets for therapy post ICH, but left unanswered the mechanism by which adaptoquin could abrogate neuronal death. A first prediction of the model was that adaptoquin enhances functional recovery without affecting total brain iron levels. Total iron levels were monitored in brain sections from vehicle- and adaptoquin-treated (30 mg/kg) mice seven days following ICH.

The target in assay [6] is recombinant HIF PHD2 (Homo sapiens, UniProt Q9GZT9). The experiment in a line: Recombinant HIF PHD2 hydroxylation of HIF peptide, non-denaturing mass spectrometry. It is filed as biochemical.
Description: as §1, §2

The subject of assay [7] is primary cortical neurons. The experiment in a line: Oxidative glutamate (homocysteate) toxicity in cortical neurons. It is filed as cell-based, rat. From the text:
FIGS. 5A-5G. […] Because adaptoquin is a HIF PHD inhibitor that appears to work independent of HIF transcription factors, and because hemin induced death involves oxidative stress, the effect of adaptoquin on oxidative glutamate toxicity was examined. This form of toxicity is observed in primary cortical neurons from E17 rat embryos (2 DIV) and involves glutamate mediated inhibition of the amino acid cystine via its plasma membrane transporter. […] Accordingly, the optimal concentration of adaptoquin in protecting neurons was first determined and found to be about 1 micromolar. […] To determine the mechanism of adaptoquin, transcriptomic experiments were performed using non-protective and protective concentrations of drug harvesting RNA just prior to the time the cell's becoming insensitive to adaptoquin (16 hrs), as provided in FIG. 5C.
To probe the mechanism of adaptoquin-induced neuroprotection, the study moved its attention to a well established model of oxidative stress in neurons induced by glutamate. Like hemin induced toxicity, oxidative glutamate toxicity is abrogated by forced expression of GPX4 (Alim et al., unpublished observations). However, oxidative glutamate toxicity has a much longer window before cells are committed to die (eighteen hours), facilitating analysis of primary events involved in cell death and protection. A detailed dose response and therapeutic window study was performed with adaptoquin in mouse cortical neurons exposed to glutamate or the glutamate analog, homocysteate. […] To probe the mechanism of this potent, delayed protection, a microarray transcriptomics study was performed using RNA from neuronal cultures that had been exposed to glutamate (or HCA) for 16 hours with vehicle, as well as non-protective (100 nM) and protective doses of adaptoquin (1 μM). Protective, but […] doses of adaptoquin reduced expression of a host of genes induced by oxidative stress including Tribbles homolog 3, methylene tetrahydrofolate reductase, the Xc-transporter, and stanniocalcin-2 hormone glycoprotein.

Read-outs that look alike come from different tables or passages of the source.

recombinant HIF PHD2, sequence (Q9GZT9 whole entry): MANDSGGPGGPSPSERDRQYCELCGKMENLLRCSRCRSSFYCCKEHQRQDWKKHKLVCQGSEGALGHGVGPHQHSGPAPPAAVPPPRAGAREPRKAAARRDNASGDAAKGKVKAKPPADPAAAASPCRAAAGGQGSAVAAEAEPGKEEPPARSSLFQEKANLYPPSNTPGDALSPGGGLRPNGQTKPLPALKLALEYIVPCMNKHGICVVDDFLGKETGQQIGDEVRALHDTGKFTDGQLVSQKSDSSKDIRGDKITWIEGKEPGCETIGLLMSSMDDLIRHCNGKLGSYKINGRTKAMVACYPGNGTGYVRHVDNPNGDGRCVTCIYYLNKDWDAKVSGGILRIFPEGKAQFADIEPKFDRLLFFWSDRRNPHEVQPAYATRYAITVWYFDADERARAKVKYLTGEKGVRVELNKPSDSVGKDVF

In the case of `Oc1cccnc1NC(c1ccc(Cl)cc1)c1ccc2cccnc2c1O` (stereo not drawn) [adaptoquin], the ATF4 hydroxylation result in assay [1] was “inhibits ATF4 hydroxylation”. In addition, in assay [2], the “Death induced by oxidative stress and ATF4 forced expression” value is “mitigates death induced by oxidative stress and ATF4 forced expression”. The “HIF-1 stabilisation relative to protective concentration” value in assay [3] is “stabilizes HIF-1 at concentrations higher than that required for full protection”. Also, the “Message levels of p21 waf1/cip1 in brain” value in assay [4] (adaptoquin 30 mg/kg) is “increased message levels of p21 waf1/cip1”. Further, the “ODD-luciferase activity in brain” value in assay [4] (adaptoquin 30 mg/kg) was “significantly increase ODD-luciferase levels and activity”; in assay [4] (adaptoquin 30 mg/kg, listed as Adaptoquin), “inhibits the HIF PHDs in brain in a dose dependent fashion”. Further, the “ODD-luciferase activity in lysates from different brain regions” value in assay [4] is “An increase in activity”; in assay [4] (listed as Adaptoquin), “dose dependent increases throughout the brain”. In addition, the “Corner task (spatial neglect)” value in assay [5] was “significantly normalized”; in assay [5] (listed as Adaptoquin), “corrects behavioral deficits”. For the same molecule, the “Tape removal task (sensory neglect)” value in assay [5] (30 mg/kg i.p.) is given as “significant improvement”; in assay [5] (30 mg/kg i.p., listed as Adaptoquin), “corrects behavioral deficits”. Further, the Hematoma size entry in assay [5] (30 mg/kg i.p., at 24 hours) is given as “no difference”. Also, the Edema entry in assay [5] (30 mg/kg i.p., at three days) is “did decrease edema”. Besides, the “Neuronal degeneration (Fluoro-jade staining), striatum hematoma and perihematomal area” value in assay [5] (30 mg/kg i.p.) is “reduction in the number of degenerating neurons”; in assay [5] (30 mg/kg i.p., listed as Apatoquin), “significantly reduces neuronal degeneration”. Besides, the p21 expression entry in assay [5] (30 mg/kg post-ICH then daily for seven days, qPCR day 7) is on record as “induced p21 expression”. Besides, the “Inhibition of recombinant HIF PHD2 activity (hydroxylation of HIF peptide)” value in assay [6] is listed as “inhibit the ability of recombinant HIF prolyl hydroxylase 2 to hydroxylate an HIF peptide”; in assay [6] (listed as Adpatoquin), “inhibits activity of recombinant HIF PHD2”. The “Protection against oxidative death” value in assay [7] (0.1 micromolar (100 nM)) is “non-protective”; in assay [7] (1 micromolar) it was “complete protection”; in assay [7] (1 micromolar, listed as adaptaquin), “protection is significant”. Besides, the “Time after glutamate/homocysteate treatment at which the compound can still be added and protect” value in assay [7] (1 micromolar) is “up to 16 hours”. The “Optimal concentration in protecting neurons” value in assay [7] (oxidative glutamate toxicity) is on record as “about 1 micromolar”.
